Test results reported in US9855268B2, “Triazolo[4,5-d]pyrimidine derivatives” (Merck Patent GmbH, priority 2013, dated 2018).

Key:
GCN2 [1] = target: T1, GCN2 (Homo sapiens, UniProt Q9P2K8); test: GCN2 enzyme assay (TR-FRET Lanthascreen, GFP-eIF2alpha phosphorylation); type: biochemical; conditions: 10 μM ATP, 80 nM GFP-eIF2a, 30 nM GCN2
Outline: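 Phosphorylation of GFP-eIF2alpha (80 nM) by GCN2 run at room temperature with 10 μM ATP. After EDTA quench, product quantified by Lanthascreen TR-FRET (antibody–GFP complex, 340 nm excitation).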
Target sequence in this assay (Q9P2K8 whole entry, species assumed): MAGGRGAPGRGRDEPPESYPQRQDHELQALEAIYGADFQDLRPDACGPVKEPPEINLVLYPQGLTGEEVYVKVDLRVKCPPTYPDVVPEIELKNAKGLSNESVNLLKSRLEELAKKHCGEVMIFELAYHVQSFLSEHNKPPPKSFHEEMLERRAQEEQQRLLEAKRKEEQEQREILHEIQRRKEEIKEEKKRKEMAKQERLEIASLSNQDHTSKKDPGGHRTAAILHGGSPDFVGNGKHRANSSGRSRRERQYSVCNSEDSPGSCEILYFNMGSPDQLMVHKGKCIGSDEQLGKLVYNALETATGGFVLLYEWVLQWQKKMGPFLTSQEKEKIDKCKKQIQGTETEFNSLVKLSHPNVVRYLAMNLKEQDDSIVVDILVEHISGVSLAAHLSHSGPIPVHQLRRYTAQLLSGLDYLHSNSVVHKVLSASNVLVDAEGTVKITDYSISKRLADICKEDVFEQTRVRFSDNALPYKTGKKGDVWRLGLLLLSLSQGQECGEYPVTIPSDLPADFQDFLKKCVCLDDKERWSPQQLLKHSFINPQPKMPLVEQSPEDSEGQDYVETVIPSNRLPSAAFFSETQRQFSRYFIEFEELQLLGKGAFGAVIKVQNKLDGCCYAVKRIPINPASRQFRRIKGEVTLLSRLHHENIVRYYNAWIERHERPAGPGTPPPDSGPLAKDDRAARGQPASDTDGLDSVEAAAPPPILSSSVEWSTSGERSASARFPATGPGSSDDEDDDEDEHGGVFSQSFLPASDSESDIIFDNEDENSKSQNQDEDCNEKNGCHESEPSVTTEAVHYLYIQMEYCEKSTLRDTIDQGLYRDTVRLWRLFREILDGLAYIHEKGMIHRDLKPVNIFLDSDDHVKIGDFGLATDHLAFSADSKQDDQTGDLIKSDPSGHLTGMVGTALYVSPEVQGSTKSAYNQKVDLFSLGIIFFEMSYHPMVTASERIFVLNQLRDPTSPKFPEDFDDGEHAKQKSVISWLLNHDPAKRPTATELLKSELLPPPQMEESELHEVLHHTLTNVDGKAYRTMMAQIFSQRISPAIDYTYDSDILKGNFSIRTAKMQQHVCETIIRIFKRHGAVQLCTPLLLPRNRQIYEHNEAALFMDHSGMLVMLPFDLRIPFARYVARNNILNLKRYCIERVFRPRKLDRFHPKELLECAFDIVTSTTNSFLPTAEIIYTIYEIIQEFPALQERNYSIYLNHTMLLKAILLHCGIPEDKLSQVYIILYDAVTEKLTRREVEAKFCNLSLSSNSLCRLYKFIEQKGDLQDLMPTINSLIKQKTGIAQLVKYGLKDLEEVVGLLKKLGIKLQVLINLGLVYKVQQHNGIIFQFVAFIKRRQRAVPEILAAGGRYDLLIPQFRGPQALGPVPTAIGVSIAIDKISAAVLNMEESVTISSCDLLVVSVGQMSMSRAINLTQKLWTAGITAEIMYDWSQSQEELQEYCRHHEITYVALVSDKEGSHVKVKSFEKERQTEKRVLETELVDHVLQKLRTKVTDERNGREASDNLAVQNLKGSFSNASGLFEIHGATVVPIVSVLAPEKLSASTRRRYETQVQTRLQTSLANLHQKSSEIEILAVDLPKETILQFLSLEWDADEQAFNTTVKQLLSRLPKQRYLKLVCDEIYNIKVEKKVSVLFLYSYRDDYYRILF

GCN2 [2] = target: T1, GCN2; test: Cellular assay of GCN2 activity (phospho-eIF2alpha immunocytochemistry after tryptophanol); type: cell-based; set-up: endogenous in cells; host or cells: U2OS; conditions: Human U2OS cells, 2 h compound, 600 μM tryptophanol 30 min
Experimental: Cellular Assay for the Determination of Compound Activities
Human U2OS cells (2000 cells/well) are seeded into 384-well plates and incubated for 20 hours.
The next day, the cells are treated with the test compounds and incubated for 2 hours. Then, tryptophanol, at a final concentration of 600 μM, is added to the cells and those are incubated for 30 minutes.
The analysis of cellular GCN2 activities is done by immunocytochemistry.
Briefly, cells are fixated on the well surfaces by formaldehyde and permeabilised with Triton X-100.
The analysis and quantification of phosphorylated GCN2 is done by scanning the plates in the Acumen Explorer system (TTPLabtech). The obtained data are normalised against the untreated control wells (DMSO only) and expressed as % effect values. The determination of IC50 values is done by using the Graph Pad Prism software.
Target sequence in this assay (Q9P2K8 whole entry): as the sequence (Q9P2K8 whole entry, species assumed) above

GSK3α(h) = GSK3α(h) (Homo sapiens, UniProt P49840); test: GSK3α radiometric kinase assay (33P-ATP, phospho GS2 peptide); type: biochemical; conditions: read-out: IC50 GSK3α (enzyme assay)
Experimental: GSK3α(h) is incubated with 8 mM MOPS pH 7,0, 0,2 mM EDTA, 20 μM
[…](p)EDEEE (phosphor GS2 peptide), 10 mM Mg-acetate and [gamma-33P-ATP](specific activity approx. 500 cpm/Pmol, concentration as required). The reaction is initiated by the addition of the MgATP. After incubation for 40 minutes at the room temperature, the Reaction is stopped by the addition of 3% phosphoric acid solution. 10 μL of reaction is then spotted onto a P30 filtermat and washed three times for 5 minutes in 50 mM phosphoric acid and once in methanol prior to drying and scintillation counting.

Sequence of GSK3α(h) (P49840 whole entry): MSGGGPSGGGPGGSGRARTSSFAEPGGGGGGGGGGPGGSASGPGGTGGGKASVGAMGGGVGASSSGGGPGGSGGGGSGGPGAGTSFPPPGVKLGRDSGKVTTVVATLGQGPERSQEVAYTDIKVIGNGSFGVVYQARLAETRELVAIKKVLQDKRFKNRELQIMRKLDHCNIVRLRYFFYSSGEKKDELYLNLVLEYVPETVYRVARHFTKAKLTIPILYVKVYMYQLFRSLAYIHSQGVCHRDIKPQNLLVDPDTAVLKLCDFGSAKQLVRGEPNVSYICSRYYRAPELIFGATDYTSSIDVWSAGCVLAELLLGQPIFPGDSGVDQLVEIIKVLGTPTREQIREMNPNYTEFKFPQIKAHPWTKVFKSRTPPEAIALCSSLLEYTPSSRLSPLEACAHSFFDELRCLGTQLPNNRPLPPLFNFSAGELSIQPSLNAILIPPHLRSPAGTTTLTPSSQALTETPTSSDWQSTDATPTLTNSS

| IC50 (GCN2 [1]) [nM] | IC50 (GCN2 [2]) [nM] | IC50 (GSK3α(h)) [nM] | SMILES |
| --- | --- | --- | --- |
| < 1000 | 1000 to 5000 |  | OCCn1cc(-c2ccc(-n3nnc4cnc(N[C@H]5CC[C@H](O)C5)nc43)cc2)cn1 (relative stereo) [A57, trans-3-(3-{4-[1-(2-hydroxy-ethyl)-1H-pyrazol-4-yl]-phenyl}-3H-[1,2,3]triazolo[4,5-d]pyrimidin-5-ylamino)-cyclopentanol] |
| < 1000 | < 1000 |  | COc1ccc(-n2nnc3cnc(NC4CC4)nc32)cc1 [A4, cyclopropyl-[3-(4-methoxy-phenyl)-3H-[1,2,3]triazolo[4,5-d]pyrimidin-5-yl]-amine] |
| < 1000 | 5000 to 10000 |  | COc1ccc(-n2nnc3cnc(NC4CCN(C(=O)CCN(C)C)CC4)nc32)cc1 [A49, 3-dimethylamino-1-{4-[3-(4-methoxy-phenyl)-3H-[1,2,3]triazolo[4,5-d]pyrimidin-5-ylamino]-piperidin-1-yl}-propan-1-one] |
| < 1000 | 5000 to 10000 |  | Cn1cc(CNc2ncc3nnn(-c4ccc5ncccc5c4)c3n2)cn1 [B1, (1-methyl-1H-pyrazol-4-ylmethyl)-(3-quinolin-6-yl-3H-[1,2,3]triazolo[4,5-d]pyrimidin-5-yl)-amine] |
| < 1000 | 1000 to 5000 |  | COc1ccc(-n2nnc3cnc(N[C@@H]4CC[C@@H](C(=O)N(C)C)C4)nc32)cc1 [A243, (1R,3R)-3-[3-(4-methoxy-phenyl)-3H-[1,2,3]triazolo[4,5-d]pyrimidin-5-ylamino]-cyclo pentanecarboxylic acid dimethylamide] |
| < 1000 | < 1000 |  | Cc1ccc2cc(-n3nnc4cnc(N[C@@H]5CC[C@@H](C(=O)NCCC(C)(C)O)C5)nc43)ccc2n1 [A253, (1R,3R)-3-[3-(2-methyl-quinolin-6-yl)-3H-[1,2,3]triazolo[4,5-d]pyrimidin-5-ylamino]-cyclopentanecarboxylic acid (3-hydroxy-3-methyl-butyl)-amide] |
| < 1000 |  | < 1000 | Cc1nc2ccc(-n3nnc4cnc(N[C@@H]5CC[C@@H](O)C5)nc43)cc2o1 (relative stereo) [A199] |
| < 1000 |  | < 1000 | Cn1cc(-c2ccc(-n3nnc4cnc(N[C@@H]5CCN(C(=O)CCCN6CCNCC6)C5)nc43)cc2)cn1 [A271, 1-((R)-3-{3-[4-(1-methyl-1H-pyrazol-4-yl)-phenyl]-3H-[1,2,3]triazolo[4,5-d]pyrimidin-5-ylamino}-pyrrolidin-1-yl)-4-piperazin-1-yl-butan-1-one] |
| < 1000 | 1000 to 5000 |  | Cn1cc(-c2ccc(-n3nnc4cnc(N[C@H]5CC[C@H](O)C5)nc43)cc2)cn1 (relative stereo) [A51, trans-3-{3-[4-(1-methyl-1H-pyrazol-4-yl)-phenyl]-3H-[1,2,3]triazolo[4,5-d]pyrimidin-5-ylamino}-cyclopentanol] |
| < 1000 | 5000 to 10000 |  | N[C@H]1CC[C@H](Nc2ncc3nnn(-c4ccc(N5CC[C@@H](O)C5)cc4)c3n2)CC1 [A70, (R)-1-{4-[5-((trans)-4-amino-cyclohexylamino)-[1,2,3]triazolo[4,5-d]pyrimidin-3-yl]-phenyl}-pyrrolidin-3-ol] |
| < 1000 | 5000 to 10000 |  | Cn1cc2ccc(-n3nnc4cnc(N[C@@H]5CC[C@@H](C(N)=O)C5)nc43)cc2n1 [A185, (1R,3R)-3-[3-(2-methyl-2H-indazol-6-yl)-3H-[1,2,3]triazolo[4,5-d]pyrimidin-5-ylamino]-cyclopentanecarboxylic acid amide] |
| < 1000 | 5000 to 10000 |  | O[C@@H]1CC[C@@H](Nc2ncc3nnn(-c4ccc(OC[C@H](O)C(F)(F)F)cc4)c3n2)C1 (stereo in doubt) [A205, (trans)-3-{3-[4-((S)-3,3,3-trifluoro-2-hydroxy-propoxy)-phenyl]-3H-[1,2,3]triazolo[4,5-d]pyrimidin-5-ylamino}-cyclopentanol] |
| < 1000 |  | < 1000 | COc1ccc(-n2nnc3cnc(N[C@H]4CC[C@H](CO)C4)nc32)cc1 [A111, {(1S,3S)-3-[3-(4-methoxy-phenyl)-3H-[1,2,3]triazolo[4,5-d]pyrimidin-5-ylamino]-cyclopentyl}-methanol] |
| < 1000 |  | < 1000 | COc1ccc(-n2nnc3cnc(N[C@H]4CC[C@@H](S(C)(=O)=O)C4)nc32)cc1 (relative stereo) [A264, ((cis)-3-methanesulfonyl-cyclopentyl)-[3-(4-methoxy-phenyl)-3H-[1,2,3]triazolo[4,5-d]pyrimidin-5-yl]-amine] |
| < 1000 |  | < 1000 | COc1ccc(-n2nnc3cnc(N[C@@H]4CCN(C(=O)CCN5CCN(C)CC5)C4)nc32)cc1 [A132, 1-{(R)-3-[3-(4-methoxy-phenyl)-3H-[1,2,3]triazolo[4,5-d]pyrimidin-5-ylamino]-pyrrolidin-1-yl}-3-(4-methyl-piperazin-1-yl)-propan-1-one] |
| < 1000 |  | < 1000 | COc1ccc(-n2nnc3cnc(N[C@H]4CC[C@H](C(N)=O)CC4)nc32)cc1 [A143, 4-[3-(4-methoxy-phenyl)-3H-[1,2,3]triazolo[4,5-d]pyrimidin-5-ylamino]-cyclohexanecarboxylic acid amide] |
| < 1000 |  | < 1000 | O[C@@H]1CC[C@@H](Nc2ncc3nnn(-c4ccc(N5CCCC5)cc4)c3n2)C1 (relative stereo) [A198, (trans)-3-[3-(4-pyrrolidin-1-yl-phenyl)-3H-[1,2,3]triazolo[4,5-d]pyrimidin-5-ylamino]-cyclopentanol] |
| < 1000 |  | < 1000 | COc1ccc(-n2nnc3cnc(NC(C)CC(N)=O)nc32)cc1 (stereo not shown) [A144, 3-[3-(4-methoxy-phenyl)-3H-[1,2,3]triazolo[4,5-d]pyrimidin-5-ylamino]-butyramide] |
| < 1000 |  | < 1000 | COc1ccc(-n2nnc3cnc(N[C@@H]4CC[C@@H](C(N)=O)C4)nc32)cn1 [A173, (1R,3R)-3-[3-(6-methoxy-pyridin-3-yl)-3H-[1,2,3]triazolo[4,5-d]pyrimidin-5-ylamino]-cyclopentanecarboxylic acid amide] |
| < 1000 |  | < 1000 | O[C@@H]1CC[C@@H](Nc2ncc3nnn(-c4ccc5nsnc5c4)c3n2)C1 (relative stereo) [A200, (trans)-3-(3-benzo[1,2,5]thiadiazol-5-yl-3H-[1,2,3]triazolo[4,5-d]pyrimidin-5-ylamino)-cyclopentanol] |
| < 1000 |  | < 1000 | COc1ccc(-n2nnc3cnc(N[C@@H]4CC[C@@H](C(N)=O)C4)nc32)nc1 [A175, (1R,3R)-3-[3-(5-methoxy-pyridin-2-yl)-3H-[1,2,3]triazolo[4,5-d]pyrimidin-5-ylamino]-cyclopentanecarboxylic acid amide] |
| < 1000 |  | < 1000 | NC(=O)[C@@H]1CC[C@@H](Nc2ncc3nnn(-c4cccc(I)c4)c3n2)C1 [A176, (1R,3R)-3-[3-(3-iodo-phenyl)-3H-[1,2,3]triazolo[4,5-d]pyrimidin-5-ylamino]-cyclopentanecarboxylic acid amide] |
| < 1000 |  | < 1000 | NC(=O)[C@@H]1CC[C@@H](Nc2ncc3nnn(-c4ccc(-c5cnn(CCc6nnn[nH]6)c5)cc4)c3n2)C1 [A265, (1R,3R)-3-[3-(4-{1-[2-(1H-tetrazol-5-yl)-ethyl]-1H-pyrazol-4-yl}-phenyl)-3H-[1,2,3]triazolo[4,5-d]pyrimidin-5-ylamino]-cyclopentanecarboxylic acid amide] |
